Measured values reported in US3974268A, “Bone-seeking technetium-99m imidodiphosphonate complex” (priority 1975, dated 1976).

Columns and labels:
[1] = Organ distribution of 99mTc-IDP in rabbits with 85Sr administered simultaneously (Table 1); assay type: in vivo, New Zealand adult albino rabbits; settings: for % Dose/1% Body Weight, AVG BONE: mean of femur, tibia, spine, pelvis
Procedure: The organ distribution of the ^99m Tc imidodiphosphonate (IDP) was studied after I.V. injection of 50-200 μCi containing 0.1-0.2 mg of IDP per animal in New Zealand adult albino rabbits weighing 3.5-5 kg and compared with 10-20 μCi of ^85 Sr administered simultaneously as a biological standard. The methods of tissue assay used were those described in the Subramanian et al. references, supra. These animals were sacrificed at various time intervals from 15 min. to 24 hrs. after injection. […] A whole body image of the dog was obtained in the right lateral projection 4 hours after intravenous injection of 5 mCi of ^99m Tc-IDP using the Ohio Nuclear Model 100 area scan camera fitted with a 140 kev high sensitivity parallel hole collimator, with the data density setting of 200.
Table 1 contains biological distribution data of ^99m Tc-IDP in rabbits with ^85 Sr used simultaneously. The numbers shown in parenthesis after the time of study is the number of animals used per time interval. The values for each organ shown are the averages for each group of animals. The bone concentration shown as % dose / 1% body weight is the mean value of individual average of concentrations in four types of bone; the femur, tibia, spine and pelvis. An overall mean concentration of the four types of bone was calculated for each animal and then the average of these mean values were determined. Similarly the mean values for bone/organ ratios were calculated for each group.
In order to compensate for biologic variation, bone agents are best studied by comparing the quantitative uptake of the new compound with simultaneously administered ^85 Sr as a means of normalization. In comparing several ^99m Tc labeled agents between each other one should not only compare the whole organ uptake of individual compounds but also the ratios of their concentrations with ^85 Sr, especially so in comparing bone uptakes. Due to regional variation in bone uptake with the skeleton it is difficult to correctly estimate whole body bone uptake quantitatively. Nevertheless, the data for single whole bones (femur and tibia) is useful. […] This concentration change over serial time intervals may be due to the metabolic breakdown of the compound at the bone mineral surface with the ^99m Tc complex being more labile, while we known the biological half life of ^85 Sr is prolonged. Even at the later time intervals than 2 hours, ^99m Tc-IDP concentration in bone is at least 20-25% higher than the other Tc complexes (Table 2). The soft tissue concentrations of all these complexes are lower, especially that of the muscle, than ^85 Sr. The liver concentration is somewhat higher than ^85 Sr for some ^99m Tc complexes. This should not be a problem because the total liver concentration is relatively low.

[2] = in words, stated as known; cited from earlier work
[3] = 15 min after I.V. injection, mean of 6 rabbits
[4] = 1 hour after I.V. injection, mean of 6 rabbits
[5] = 2 hours after I.V. injection, mean of 9 rabbits
[6] = 4 hours after I.V. injection, mean of 9 rabbits
[7] = 24 hours after I.V. injection, mean of 7 rabbits

## [85Sr] [85Sr]
[1]; [3]
  % Dose in Whole Organ, BLOOD: 16.1 % Dose
  % Dose in Whole Organ, KIDNEY: 1.27 % Dose
  % Dose in Whole Organ, LIVER: 2.13 % Dose
  % Dose in Whole Organ, MARROW: 0.903 % Dose
  % Dose in Whole Organ, MUSCLE: 15.6 % Dose
  % Dose in Whole Organ, URINE: 4.94 % Dose
  % Dose in Whole Organ, WHOLE FEMUR: 0.741 % Dose
  % Dose in Whole Organ, WHOLE TIBIA: 0.540 % Dose
  % Dose/1% Body Weight, BLOOD: 2.29 % Dose/1% Body Weight
  % Dose/1% Body Weight, FEMUR: 3.41 % Dose/1% Body Weight
  % Dose/1% Body Weight, KIDNEY: 2.68 % Dose/1% Body Weight
  % Dose/1% Body Weight, LG INT: 1.79 % Dose/1% Body Weight
  % Dose/1% Body Weight, LIVER: 0.692 % Dose/1% Body Weight
  % Dose/1% Body Weight, MARROW: 0.410 % Dose/1% Body Weight
  % Dose/1% Body Weight, MUSCLE: 0.363 % Dose/1% Body Weight
  % Dose/1% Body Weight, PELVIS: 5.06 % Dose/1% Body Weight
  % Dose/1% Body Weight, SM INT: 1.23 % Dose/1% Body Weight
  % Dose/1% Body Weight, SPINE: 3.76 % Dose/1% Body Weight
  % Dose/1% Body Weight, TIBIA: 3.02 % Dose/1% Body Weight
  RATIOS BONE/BLOOD: 1.71
  RATIOS BONE/MARROW: 9.84
  RATIOS BONE/MUSCLE: 10.6
[1]; 15 min after I.V. injection, 6 rabbits
  % Dose/1% Body Weight, AVG BONE: 3.82 % Dose/1% Body Weight
[1]; [4]
  % Dose in Whole Organ, BLOOD: 8.17 % Dose
  % Dose in Whole Organ, KIDNEY: 0.938 % Dose
  % Dose in Whole Organ, LIVER: 1.58 % Dose
  % Dose in Whole Organ, MARROW: 0.817 % Dose
  % Dose in Whole Organ, MUSCLE: 9.55 % Dose
  % Dose in Whole Organ, URINE: 8.96 % Dose
  % Dose in Whole Organ, WHOLE FEMUR: 1.27 % Dose
  % Dose in Whole Organ, WHOLE TIBIA: 1.03 % Dose
  % Dose/1% Body Weight, BLOOD: 1.17 % Dose/1% Body Weight
  % Dose/1% Body Weight, FEMUR: 5.23 % Dose/1% Body Weight
  % Dose/1% Body Weight, KIDNEY: 1.54 % Dose/1% Body Weight
  % Dose/1% Body Weight, LG INT: 0.961 % Dose/1% Body Weight
  % Dose/1% Body Weight, LIVER: 0.489 % Dose/1% Body Weight
  % Dose/1% Body Weight, MARROW: 0.382 % Dose/1% Body Weight
  % Dose/1% Body Weight, MUSCLE: 0.222 % Dose/1% Body Weight
  % Dose/1% Body Weight, PELVIS: 5.47 % Dose/1% Body Weight
  % Dose/1% Body Weight, SM INT: 0.654 % Dose/1% Body Weight
  % Dose/1% Body Weight, SPINE: 5.82 % Dose/1% Body Weight
  % Dose/1% Body Weight, TIBIA: 4.67 % Dose/1% Body Weight
  RATIOS BONE/BLOOD: 4.53
  RATIOS BONE/MARROW: 13.9
  RATIOS BONE/MUSCLE: 23.9
[1]; 1 hour after I.V. injection, 6 rabbits
  % Dose/1% Body Weight, AVG BONE: 5.30 % Dose/1% Body Weight
[1]; [5]
  % Dose in Whole Organ, BLOOD: 5.19 % Dose
  % Dose in Whole Organ, KIDNEY: 0.638 % Dose
  % Dose in Whole Organ, LIVER: 0.947 % Dose
  % Dose in Whole Organ, MARROW: 0.499 % Dose
  % Dose in Whole Organ, MUSCLE: 7.96 % Dose
  % Dose in Whole Organ, URINE: 16.6 % Dose
  % Dose in Whole Organ, WHOLE FEMUR: 1.67 % Dose
  % Dose in Whole Organ, WHOLE TIBIA: 1.34 % Dose
  % Dose/1% Body Weight, BLOOD: 0.742 % Dose/1% Body Weight
  % Dose/1% Body Weight, FEMUR: 6.84 % Dose/1% Body Weight
  % Dose/1% Body Weight, KIDNEY: 1.14 % Dose/1% Body Weight
  % Dose/1% Body Weight, LG INT: 0.762 % Dose/1% Body Weight
  % Dose/1% Body Weight, LIVER: 0.357 % Dose/1% Body Weight
  % Dose/1% Body Weight, MARROW: 0.227 % Dose/1% Body Weight
  % Dose/1% Body Weight, MUSCLE: 0.186 % Dose/1% Body Weight
  % Dose/1% Body Weight, PELVIS: 7.35 % Dose/1% Body Weight
  % Dose/1% Body Weight, SM INT: 0.669 % Dose/1% Body Weight
  % Dose/1% Body Weight, SPINE: 8.05 % Dose/1% Body Weight
  % Dose/1% Body Weight, TIBIA: 6.60 % Dose/1% Body Weight
  RATIOS BONE/BLOOD: 10.5
  RATIOS BONE/MARROW: 36
  RATIOS BONE/MUSCLE: 44
[1]; 2 hours after I.V. injection, 9 rabbits
  % Dose/1% Body Weight, AVG BONE: 7.21 % Dose/1% Body Weight
[1]; [6]
  % Dose in Whole Organ, BLOOD: 2.72 % Dose
  % Dose in Whole Organ, KIDNEY: 0.267 % Dose
  % Dose in Whole Organ, LIVER: 0.576 % Dose
  % Dose in Whole Organ, MARROW: 0.300 % Dose
  % Dose in Whole Organ, MUSCLE: 4.80 % Dose
  % Dose in Whole Organ, URINE: 26.2 % Dose
  % Dose in Whole Organ, WHOLE FEMUR: 1.84 % Dose
  % Dose in Whole Organ, WHOLE TIBIA: 1.57 % Dose
  % Dose/1% Body Weight, BLOOD: 0.388 % Dose/1% Body Weight
  % Dose/1% Body Weight, FEMUR: 7.87 % Dose/1% Body Weight
  % Dose/1% Body Weight, KIDNEY: 0.488 % Dose/1% Body Weight
  % Dose/1% Body Weight, LG INT: 0.421 % Dose/1% Body Weight
  % Dose/1% Body Weight, LIVER: 0.168 % Dose/1% Body Weight
  % Dose/1% Body Weight, MARROW: 0.137 % Dose/1% Body Weight
  % Dose/1% Body Weight, MUSCLE: 0.125 % Dose/1% Body Weight
  % Dose/1% Body Weight, PELVIS: 9.83 % Dose/1% Body Weight
  % Dose/1% Body Weight, SM INT: 0.300 % Dose/1% Body Weight
  % Dose/1% Body Weight, SPINE: 9.57 % Dose/1% Body Weight
  % Dose/1% Body Weight, TIBIA: 7.64 % Dose/1% Body Weight
  RATIOS BONE/BLOOD: 23.6
  RATIOS BONE/MARROW: 66.9
  RATIOS BONE/MUSCLE: 73.3
[1]; 4 hours after I.V. injection, 9 rabbits
  % Dose/1% Body Weight, AVG BONE: 9.16 % Dose/1% Body Weight
[1]; [7]
  % Dose in Whole Organ, BLOOD: 0.250 % Dose
  % Dose in Whole Organ, KIDNEY: 0.022 % Dose
  % Dose in Whole Organ, LIVER: 0.004 % Dose
  % Dose in Whole Organ, MARROW: 0.070 % Dose
  % Dose in Whole Organ, MUSCLE: 0.628 % Dose
  % Dose in Whole Organ, WHOLE FEMUR: 1.55 % Dose
  % Dose in Whole Organ, WHOLE TIBIA: 1.38 % Dose
  % Dose/1% Body Weight, BLOOD: 0.331 % Dose/1% Body Weight
  % Dose/1% Body Weight, FEMUR: 6.39 % Dose/1% Body Weight
  % Dose/1% Body Weight, KIDNEY: 0.067 % Dose/1% Body Weight
  % Dose/1% Body Weight, LG INT: 0.088 % Dose/1% Body Weight
  % Dose/1% Body Weight, LIVER: 0.016 % Dose/1% Body Weight
  % Dose/1% Body Weight, MARROW: 0.032 % Dose/1% Body Weight
  % Dose/1% Body Weight, MUSCLE: 0.015 % Dose/1% Body Weight
  % Dose/1% Body Weight, PELVIS: 8.13 % Dose/1% Body Weight
  % Dose/1% Body Weight, SM INT: 0.042 % Dose/1% Body Weight
  % Dose/1% Body Weight, SPINE: 6.96 % Dose/1% Body Weight
  % Dose/1% Body Weight, TIBIA: 6.58 % Dose/1% Body Weight
  RATIOS BONE/BLOOD: 20.9
  RATIOS BONE/MARROW: 217
  RATIOS BONE/MUSCLE: 462
[1]; 24 hours after I.V. injection, 7 rabbits
  % Dose/1% Body Weight, AVG BONE: 6.93 % Dose/1% Body Weight
[2]
  biological half life: prolonged
